Data on seven molecules can be found in ChEMBL document CHEMBL3132805, “Synthesis of new 13-diphenylalkyl analogues of berberine and elucidation of their base pair specificity and energetics of DNA binding” (Medchemcomm, 2014).

The structures appear in SMILES notation. Activity calls are given as the source filed them. The rule behind the calls is not given here.

Test [1] in a line: Binding affinity to duplex DNA (unknown origin) assessed as change in melting temperature.
The nature of test [2]: Binding affinity to poly(dG-dC).poly(dG-dC) DNA (unknown origin) in CP buffer at pH 7.0 at 3 to 24 uM by CD spectroscopy.
A short description of test [3]: Binding affinity to poly(dA-dT).poly(dA-dT) DNA (unknown origin) in CP buffer at pH 7.0 at 3 to 24 uM by CD spectroscopy.
Test [4] has as its system DNA. Description: Binding affinity to calf thymus DNA in CP buffer at pH 7.0 at 3 to 24 uM by CD spectroscopy. It is filed as nucleic-acid assay. The note with it: Bos taurus.

Take `COc1ccc2cc3[n+](cc2c1OC)CCc1cc2c(cc1-3)OCO2`: the ΔTm in test [1] stood at 13 °C.
Take `COc1ccc2c(CCCCCC(c3ccccc3)c3ccccc3)c3[n+](cc2c1OC)CCc1cc2c(cc1-3)OCO2`: the outcome in test [2], in test [3] and in test [4] was Active. Besides, the ΔTm in test [1] is 16.6 °C.
Consider `COc1ccc2c(C(c3ccccc3)c3ccccc3)c3[n+](cc2c1OC)CCc1cc2c(cc1-3)OCO2`, for which the outcome in test [2], in test [3] and in test [4] was Active. Besides, the thermal shift (ΔTm) in test [1] was 6 °C.
Take `COc1ccc2c(CCC(c3ccccc3)c3ccccc3)c3[n+](cc2c1OC)CCc1cc2c(cc1-3)OCO2`: the outcome in test [2], in test [3] and in test [4] was Active. Besides, the ΔTm in test [1] is 16 °C.
For `COc1ccc2c(CCCC(c3ccccc3)c3ccccc3)c3[n+](cc2c1OC)CCc1cc2c(cc1-3)OCO2`, the result in test [2], in test [3] and in test [4] was Active. For the same molecule, in test [1], the ΔTm worked out at 19 °C.
Consider `COc1ccc2c(CC(c3ccccc3)c3ccccc3)c3[n+](cc2c1OC)CCc1cc2c(cc1-3)OCO2`, for which the result in test [2], in test [3] and in test [4] was Active. Also, in test [1], the ΔTm came out at 7 °C.
For `COc1ccc2c(CCCCC(c3ccccc3)c3ccccc3)c3[n+](cc2c1OC)CCc1cc2c(cc1-3)OCO2`, the result in test [2], in test [3] and in test [4] was Active. In test [1], the ΔTm came to 17 °C.
